Experimental data as given in US20240308992A1 (Biopolar Youtang(Guangdong) Pharmaceutical Co., Ltd., priority 2021, published 2024).

Target: T1, Drak2 (Homo sapiens, UniProt O94768)
T1 sequence (O94768 1-372): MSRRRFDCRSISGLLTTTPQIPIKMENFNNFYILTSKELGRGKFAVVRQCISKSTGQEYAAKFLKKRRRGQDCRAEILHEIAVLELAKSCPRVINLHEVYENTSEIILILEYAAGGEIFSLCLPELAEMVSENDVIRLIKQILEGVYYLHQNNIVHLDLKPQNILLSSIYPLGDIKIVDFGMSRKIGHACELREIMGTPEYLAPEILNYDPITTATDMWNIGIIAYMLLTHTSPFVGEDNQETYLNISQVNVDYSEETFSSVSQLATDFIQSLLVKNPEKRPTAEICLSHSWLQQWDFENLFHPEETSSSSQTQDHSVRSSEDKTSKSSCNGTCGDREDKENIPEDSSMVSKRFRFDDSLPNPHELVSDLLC
Test: Drak2 activity test, ADP-Glo kinase assay (Promega)
Assay type: biochemical
Details: inhibition of Drak2 kinase activity, 2 h room temperature, activity range classes, read-out: IC50_Drak2

Compound	IC50
CCCCC(=O)Nc1csc(-c2cncc(-c3ccc(C(=O)N4CCN(C)CC4)c(OC)c3)n2)c1 [Example B37, N-(5-(6-(3-methoxy-4-(4-methylpiperazine-1-carbonyl)phenyl)pyrazin-2-yl)thiophen-3-yl)pentanamide]	11 to 100 nM
COc1cc(-c2cncc(-c3cc(NC(=O)CC4CC4)cs3)n2)ccc1C(=O)N1CCN(C)CC1 [Example B38, 2-cyclopropyl-N-(5-(6-(3-methoxy-4-(4-methylpiperazine-1-carbonyl)phenyl)pyrazin-2-yl)thiophen-3-yl)acetamide]	11 to 100 nM
COc1cc(-c2cncc(-c3cc(NC(=O)CC4CCC4)cs3)n2)ccc1C(=O)N1CCN(C)CC1 [Example B39, 2-cyclobutyl-N-(5-(6-(3-methoxy-4-(4-methylpiperazine-1-carbonyl)phenyl)pyrazin-2-yl)thiophen-3-yl)acetamide]	11 to 100 nM
COc1cc(-c2cncc(-c3cc(NC(=O)CC4CCCC4)cs3)n2)ccc1C(=O)N1CCN(C)CC1 [Example B40, 2-cyclopentyl-N-(5-(6-(3-methoxy-4-(4-methylpiperazine-1-carbonyl)phenyl)pyrazin-2-yl)thiophen-3-yl)acetamide]	11 to 100 nM
CCCCC(=O)Nc1csc(-c2cncc(-c3ccc(C(=O)Nc4cn(C)nc4OC)c(OC)c3)n2)c1 [Example B41, 2-methoxy-N-(3-methoxy-1-methyl-1H-pyrazol-4-yl)-4-(6-(4-pentanamidothiophen-2-yl)pyrazin-2-yl)benzamide]	101 to 1000 nM
COc1cc(-c2cncc(-c3cc(NC(=O)CC4CC4)cs3)n2)ccc1C(=O)Nc1cn(C)nc1OC [Example B42, 4-(6-(4-(2-cyclopropylacetamido)thiophen-2-yl)pyrazin-2-yl)-2-methoxy-N-(3-methoxy-1-methyl-1H-pyrazol-4-yl)benzamide]	101 to 1000 nM
COc1cc(-c2cncc(-c3cc(NC(=O)CC4CCC4)cs3)n2)ccc1C(=O)Nc1cnn(C)c1OC [Example B43, 4-(6-(4-(2-cyclobutylacetamido)thiophen-2-yl)pyrazin-2-yl)-2-methoxy-N-(5-methoxy-1-methyl-1H-pyrazol-4-yl)benzamide]	101 to 1000 nM
COc1cc(-c2cncc(-c3cc(NC(=O)CC4CCCC4)cs3)n2)ccc1C(=O)Nc1cnn(C)c1OC [Example B44, 4-(6-(4-(2-cyclopentylacetamido)thiophen-2-yl)pyrazin-2-yl)-2-methoxy-N-(5-methoxy-1-methyl-1H-pyrazol-4-yl)benzamide]	101 to 1000 nM
COc1cc(-c2cncc(-c3cc(NC(=O)CC45CC(C4)C5)cs3)n2)ccc1C(=O)N1CCOCC1 [Example B45, 2-(bicyclo[1.1.1]pentan-1-yl)-N-(5-(6-(3-methoxy-4-(morpholine-4-carbonyl)phenyl)pyrazin-2-yl)thiophen-3-yl)acetamide]	11 to 100 nM
COc1cc(-c2cncc(-c3cc(NC(=O)CC4CC4)cs3)n2)ccc1C(=O)Nc1nnco1 [Example B46, 4-(6-(4-(2-cyclopropylacetamido)thiophen-2-yl)pyrazin-2-yl)-2-methoxy-N-(1,3,4-oxadiazol-2-yl)benzamide]	11 to 100 nM
CCCCC(=O)Nc1csc(-c2cncc(-c3ccc(C(=O)N4CCN(C5CCN(C)CC5)CC4)c(OC)c3)n2)c1 [Example B47, N-(5-(6-(3-methoxy-4-(4-(1-methylpiperidin-4-yl)piperazine-1-carbonyl)phenyl)pyrazin-2-yl)thiophen-3-yl)pentanamide]	11 to 100 nM
COc1cc(-c2cncc(-c3cc(NC(=O)CC4CC4)cs3)n2)ccc1C(=O)N1CCC(OC)CC1 [Example B48, 2-cyclopropyl-N-(5-(6-(3-methoxy-4-(4-methoxypiperidine-1-carbonyl)phenyl)pyrazin-2-yl)thiophen-3-yl)acetamide]	11 to 100 nM
COc1cc(-c2cncc(-c3cc(NC(=O)CC4CCC4)cs3)n2)ccc1C(=O)N1CCC(OC)CC1 [Example B49, 2-cyclobutyl-N-(5-(6-(3-methoxy-4-(4-methoxypiperidine-1-carbonyl)phenyl)pyrazin-2-yl)thiophen-3-yl)acetamide]	11 to 100 nM
COc1cc(-c2cncc(-c3cc(NC(=O)CC4CC4)cs3)n2)ccc1C(=O)N1CCN(C2CCN(C)CC2)CC1 [Example B50, 2-cyclopropyl-N-(5-(6-(3-methoxy-4-(4-(1-methylpiperidin-4-yl)piperazine-1-carbonyl)phenyl)pyrazin-2-yl)thiophen-3-yl)acetamide]	11 to 100 nM
COc1cc(-c2cncc(-c3cc(NC(=O)CC4CCC4)cs3)n2)ccc1C(=O)N1CCN(C2CCN(C)CC2)CC1 [Example B51, 2-cyclobutyl-N-(5-(6-(3-methoxy-4-(4-(1-methylpiperidin-4-yl)piperazine-1-carbonyl)phenyl)pyrazin-2-yl)thiophen-3-yl)acetamide]	11 to 100 nM

Next, values leading:

IC50	Compound
11 to 100 nM	COc1cc(-c2cncc(-c3cc(NC(=O)CC4CCCC4)cs3)n2)ccc1C(=O)N1CCN(C2CCN(C)CC2)CC1 [Example B52, 2-cyclopentyl-N-(5-(6-(3-methoxy-4-(4-(1-methylpiperidin-4-yl)piperazine-1-carbonyl)phenyl)pyrazin-2-yl)thiophen-3-yl)acetamide]
11 to 100 nM	CCCCC(=O)Nc1csc(-c2cncc(-c3ccc(C(=O)N4CCC(OC)CC4)c(OC)c3)n2)c1 [Example B53, N-(5-(6-(3-methoxy-4-(4-methoxypiperidine-1-carbonyl)phenyl)pyrazin-2-yl)thiophen-3-yl)pentanamide]
11 to 100 nM	COc1cc(-c2cncc(-c3cc(NC(=O)CC4CCCC4)cs3)n2)ccc1C(=O)N1CCC(OC)CC1 [Example B54, 2-cyclopentyl-N-(5-(6-(3-methoxy-4-(4-methoxypiperidine-1-carbonyl)phenyl)pyrazin-2-yl)thiophen-3-yl)acetamide]
11 to 100 nM	CCCCC(=O)Nc1csc(-c2cncc(-c3ccc(C(=O)N(C)CCN(C)C)c(OC)c3)n2)c1 [Example B55, N-(2-(dimethylamino)ethyl)-2-methoxy-N-methyl-4-(6-(4-pentanamidothiophen-2-yl)pyrazin-2-yl)benzamide]
< 10 nM	COc1cc(-c2cncc(-c3cc(NC(=O)CC4CC4)cs3)n2)ccc1C(=O)N(C)CCN(C)C [Example B56, 4-(6-(4-(2-cyclopropylacetamido)thiophen-2-yl)pyrazin-2-yl)-N-(2-(dimethylamino)ethyl)-2-methoxy-N-methylbenzamide]
11 to 100 nM	COc1cc(-c2cncc(-c3cc(NC(=O)CC4CCC4)cs3)n2)ccc1C(=O)N(C)CCN(C)C [Example B57, 4-(6-(4-(2-cyclobutylacetamido)thiophen-2-yl)pyrazin-2-yl)-N-(2-(dimethylamino)ethyl)-2-methoxy-N-methylbenzamide]
11 to 100 nM	COc1cc(-c2cncc(-c3cc(NC(=O)CC4CCCC4)cs3)n2)ccc1C(=O)N(C)CCN(C)C [Example B58, 4-(6-(4-(2-cyclopentylacetamido)thiophen-2-yl)pyrazin-2-yl)-N-(2-(dimethylamino)ethyl)-2-methoxy-N-methylbenzamide]
< 10 nM	CCCCC(=O)Nc1csc(-c2cncc(-c3ccc(C(=O)N(C)C4CCN(C)CC4)c(OC)c3)n2)c1 [Example B59, 2-methoxy-N-methyl-N-(1-methylpiperidin-4-yl)-4-(6-(4-pentanamidothiophen-2-yl)pyrazin-2-yl)benzamide]
